US9249153B2, “Pharmaceutical composition for treating aging-associated diseases, containing progerin expression inhibitor as active ingredient, and screening method of said progerin expression inhibitor” (PUSAN NATIONAL UNIVERSITY INDUSTRY-UNIVERSITY COOPERATION …, priority 2011, dated 2016)
Blank lines part the entries; values can stand above or below the compound they belong to.

How the values were obtained:
p53 [1] = test: p53 induction in human fibroblasts (normal, HGPS, WS); type: cell-based
Procedure: Whole cell lysates were prepared in RIPA buffer, and centrifuged at 14,000 rpm for 30 min. Twenty micrograms of cell extracts were separated by SDS-polyacrylamide gel electrophoresis and transferred onto a PVDF membrane. The membrane was incubated for 1 hr to overnight at 4° C. with an appropriated primary antibody, followed by reaction with a secondary antibody at room temperature for 1 hr. Peroxidase activity was detected by chemiluminescence with an ECL kit (Intron) as recommended by the manufacturer.
The molecular mechanism of the inhibitory activity of progerin against p53 was scrutinized and p53 responsibility to DNA damage was determined in human progeria cell lines (HGPS and WS). […] WS cells are known to be insensitive to DNA damage-induced p53 activation, and as previously observed, WS cells can also express progerin.
Keeping in mind the fact that p53 is tightly regulated by the MDM2 pathway, the engagement of progerin with MDM2-mediated p53 suppression was also tested by treatment of Nutlin-3, which is a blocker between MDM2 and p53 and induces p53 expression. […] Considering the results, the elevated expression of progerin would be involved in DNA damage-induced p53 activation and MDM2-mediaeted p53 suppression.

[2] = system: transcriptional activity of p53; test: p21-luc luciferase assay; type: cell-based; conditions: C2 cells, Adr treatment
Prg-LMN A binding = molecular target: T1, Prg-LMN A binding (Homo sapiens, UniProt P02545); conditions: GST-pull down, cell lysate
T1 sequence (P02545 515-614 isoform P02545-6 limits assumed): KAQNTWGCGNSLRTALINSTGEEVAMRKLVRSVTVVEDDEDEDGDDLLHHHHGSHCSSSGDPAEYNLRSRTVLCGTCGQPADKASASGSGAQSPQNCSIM

RCC = test: nuclear irregularity of RCC (Example 2); type: cell-based, human
Procedure: Based on our observation that the nuclear irregularity of RCC is caused by progerin and improved by FTI, the JH compounds were also examined for effect on RCC. Like FTI, the JH compounds ameliorated nuclear irregularity (FIG. 25). […] They were tested in vivo.

HGPS cells [3] = test: nuclear LMN A/C staining in two kinds of HGPS cells; type: cell-based, human; conditions: for nuclear deformation: two kinds of HGPS cells, incubation for 24 hrs
progerin-Lamin A binding = molecular target: T2, progerin-Lamin A binding (Homo sapiens, UniProt P02545); test: ELISA-based screening of LMN A-Prg binding inhibitors; conditions: 0.1 mM final concentration
T2 sequence (P02545 515-614 isoform P02545-6 limits assumed): T1 sequence (P02545 515-614 isoform P02545-6 limits assumed)
Procedure: To isolate a Lamin A-Prg binding inhibitor, ELISA analysis was carried out. GST-progerin-C or LMN A-His was fixed with 0.5% paraformaldehyde on 96-well plates. After drying and washing steps, lysates of HEK 293 cells transfected with GFP-Lamin A, GST-Lamin A-C, or GST-progerin-C were incubated for 1 hr with a 0.1 mM (final concentration) binding inhibitor of the present invention. The 96-well plates were washed with TBST, followed by reaction with an anti-GFP-Ab (1:10,000, 45 min), an anti-GST-Ab (1:10,000, 45 min) and an anti-mouse-IgG-HRP (1:50,000, 30 min). The plates were washed twice, and incubated with a TMB solution (Calbiochem) and then with a stop solution (1 N H2SO4). Absorbance was read on an ELISA reader.
If progerin-induced senescence is mediated by binding LMN A, an inhibitor against binding between LMN A and progerin would block the progerin-induced pathological features. […] In this regard, an ELISA-based screening system was established. Briefly, progerin immobilized in 96-well plates was incubated with candidates from a chemical library, together with GFP-LMN A. Subsequently, association between progerin and the GFP protein was monitored in the presence of the inhibitor candidates (FIG. 15A). From the chemical library, four effective different compounds (JH-0307809; JH1, JH-02051109; JH13, JH-03070708; JH4, and LG-02-089-23; LG-02) were selected (FIGS. 15B and 16B), and analyzed by the monitoring (FIG. 16A). […] Their cytotoxicity was evaluated by MTT assay (FIGS. 15B and 16C).

[4] = system: association between LMN A and LMN B
normal fibroblasts = test: cell counting, normal fibroblasts; type: cell-based, human
Procedure: (§1) For cell counting, cells were harvested from media, and stained for 10 min at room temperature with Trypan blue. Viable cells were counted using a hemocytometer.

[5] = molecular target: self association of LMN A (Homo sapiens, UniProt P02545)
self association of LMN A, sequence (P02545 whole entry): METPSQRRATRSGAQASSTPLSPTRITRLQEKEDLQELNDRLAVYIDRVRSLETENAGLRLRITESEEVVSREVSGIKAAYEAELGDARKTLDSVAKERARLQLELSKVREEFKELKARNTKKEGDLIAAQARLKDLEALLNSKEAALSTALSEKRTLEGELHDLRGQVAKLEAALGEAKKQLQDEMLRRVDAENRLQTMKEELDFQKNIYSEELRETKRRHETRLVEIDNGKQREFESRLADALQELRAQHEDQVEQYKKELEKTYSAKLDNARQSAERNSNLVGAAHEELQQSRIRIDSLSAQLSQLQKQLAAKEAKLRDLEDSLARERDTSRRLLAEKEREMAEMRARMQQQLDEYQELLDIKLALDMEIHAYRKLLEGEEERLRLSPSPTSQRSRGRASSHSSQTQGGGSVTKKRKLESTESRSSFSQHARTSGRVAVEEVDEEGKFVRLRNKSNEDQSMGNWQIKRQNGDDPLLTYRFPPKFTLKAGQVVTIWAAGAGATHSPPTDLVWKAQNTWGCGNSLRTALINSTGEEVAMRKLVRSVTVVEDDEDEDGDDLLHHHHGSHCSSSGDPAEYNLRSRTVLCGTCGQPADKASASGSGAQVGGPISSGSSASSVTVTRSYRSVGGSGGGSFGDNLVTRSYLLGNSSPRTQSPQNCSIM

HGPS and normal cells = test: senescence-specific β-galactosidase staining (SA-β-Gal); type: cell-based, human
Procedure: For senescence-specific acidic-β-galactosidase activity staining, cells were washed once with PBS (pH 7.2) and fixed with PBS containing 0.5% glutaraldehyde. After being washed with PBS, the cells were stained overnight at 37° C. in an X-gal solution (Senescence β-Galactosidase Staining kit; Cell Signaling Technology).

LMN A-progerin binding = LMN A-progerin binding (Homo sapiens, UniProt P02545); conditions: in vitro binding assay
HGPS cells [6] = test: cell counting, HGPS cells; type: cell-based, human
Procedure: as §1

p53 [7] = test: p53 expression and DNA damage response in RCC cell lines; type: cell-based, human; conditions: C2 and Caki-2 cell lines

SMILES: COc1cccc2c1C(=O)c1c(O)c3c(c(O)c1C2=O)C[C@@](O)(C(=O)CO)C[C@@H]3O[C@H]1C[C@H](N)[C@H](O)[C@H](C)O1 [Adr, adriamycin]
p53 induction (p53 [1]; HGPS cells): did not show the induction of p53
p53 induction (p53 [1]; Werner syndrome (WS) cells): did not show the induction of p53
p53 induction (p53 [1]; normal cells): obviously increased
p21-luc expression / activation [2]: did not increase p21-luc expression

SMILES: COC(=O)[C@H](CCSC)NC(=O)c1ccc(NC[C@@H](N)CS)cc1-c1ccccc1 [FTI]
blocking of Prg-LMN A interaction (Prg-LMN A binding): block the interaction, but slightly
nuclear irregularity of RCC (RCC): improved

SMILES: CC1(C)Oc2ccc3oc(=O)ccc3c2C[C@@H]1OC(=O)C=Cc1ccc(O)c(O)c1 [LG-02, (6S)-(−)-3-(3,4-Dihydroxy-phenyl)-acrylic acid, 7,7-dimethyl-2-oxo-5,6-dihydro-7H-pyrano[3,2-f]chromen-6-yl-ester]
inhibition of association between immobilized progerin and GFP-LMN A (screening) (progerin-Lamin A binding): effective

SMILES: COc1ccc(C2=N[C@@H](c3ccc(Cl)cc3)[C@@H](c3ccc(Cl)cc3)N2C(=O)N2CCNC(=O)C2)c(OC(C)C)c1 [Nutlin-3]
p53 induction (p53 [1]; HGPS cells): partial response
p53 induction (p53 [1]; normal cells): induced p53 obviously
p53 induction (p53 [7]): did not induce p53 obviously

Now from value to compound, other results behind:

inhibition of association between immobilized progerin and GFP-LMN A (screening) (progerin-Lamin A binding): effective
SMILES: CC1(C)Oc2cc3oc(=O)ccc3cc2C[C@@H]1OC(=O)CCc1ccc(O)c(O)c1 [JH1, (7S)-(+)-3-(3,4-Dihydroxyphenyl)propionic acid, 8,8-dimethyl-2-oxo-6,7-dihydro-2H,8H-pyrano[3,2-g]chromen-7-yl-ester]
nuclear deformation (HGPS cells [3]): ameliorated the nuclear deformation

disruption of self association of LMN A [5]: did not disrupt
inhibitory activity against LMN A-progerin binding (LMN A-progerin binding): block LMN A-progerin binding
inhibition of association between immobilized progerin and GFP-LMN A (screening) (progerin-Lamin A binding): effective
SMILES: CC1(C)Oc2cc3oc(=O)ccc3cc2C[C@@H]1OC(=O)C=Cc1cccnc1 [JH4, (7S)-(+)-3-(3-Pyridyl)-acrylic acid, 8,8-dimethyl-2-oxo-6,7-dihydro-2H,8H-pyrano[3,2-g]chromen-7-yl-ester]
nuclear deformation, effect relative to the other compounds (HGPS cells [3]; HGPS cells (FIG. 17D)): more obvious effect than the other compounds
nuclear deformation (HGPS cells [3]): ameliorated the nuclear deformation
effect on LMN A mutants related with laminopathy (LMN A mutants): did not show a favorable effect
disruption of association between LMN A and LMN B [4]: did not disrupt
cell proliferation (normal fibroblasts): induced cell proliferation
SA-β-gal (HGPS and normal cells): could suppress SA-β-gal
cell proliferation (HGPS cells [6]): promoted cell proliferation

inhibitory activity against LMN A-progerin binding (LMN A-progerin binding): block LMN A-progerin binding
inhibition of association between immobilized progerin and GFP-LMN A (screening) (progerin-Lamin A binding): effective
SMILES: CC1(C)Oc2cc3oc(=O)ccc3cc2C[C@@H]1OC(=O)C=Cc1ccc(O)c(O)c1 [JH13, (7S)-(+)-3-(3,4-Dihydroxy-phenyl)-acrylic acid, 8,8-dimethyl-2-oxo-6,7-dihydro-2H,8H-pyrano[3,2-g]chromen-7-yl-ester]
nuclear deformation (HGPS cells [3]): ameliorated the nuclear deformation
blocking of Prg-LMN A interaction (Prg-LMN A binding): blocking ability of JH4 and JH13 was also demonstrated
